The results in this text go back to ChEMBL document CHEMBL2157998, “Synthesis and biological evaluation of new phenothiazine derivatives bearing a pyrazole unit as protein farnesyltransferase inhibitors” (Bioorg Med Chem Lett, 2012).

The source made the active and inactive calls. The calls are words filed in the database; no cut-off is given here.

The test system of assay [1] is LOX IMVI. The assay is described as follows: Growth inhibition of human LOXIMVI cells at 10 uM after 48 hrs by single dose SRB assay. The format is functional. Background: In SRB staining, fixed cells bind dye roughly in proportion to their protein.
The subject of assay [2] is NCI/ADR-RES. The assay is described as follows: Growth inhibition of human NCI/ADR-RES cells at 10 uM after 48 hrs by single dose SRB assay. Type of assay: functional.
For assay [3], the system named is SF-295. Kind of assay: Growth inhibition of human SF295 cells at 10 uM after 48 hrs by single dose SRB assay. Type of assay: functional. Conditions: SF-295, 48 h, read-out: GI.
The subject of assay [4] is U-251. The assay is described as follows: Growth inhibition of human U251 cells at 10 uM after 48 hrs by single dose SRB assay. Type of assay: functional.
The test system of assay [5] is NCI-H522. The assay is described as follows: Growth inhibition of human NCI-H522 cells at 10 uM after 48 hrs by single dose SRB assay. The format is functional.
In assay [6] the test system is ACHN. Kind of assay: Growth inhibition of human ACHN cells at 10 uM after 48 hrs by single dose SRB assay. Type of assay: functional.
The subject of assay [7] is HL-60(TB). Kind of assay: Growth inhibition of human HL-60(TB) cells at 10 uM after 48 hrs by single dose SRB assay. The format is functional.
A short description of assay [8]: (§1) Growth inhibition of human […] cells at 10 uM after 48 hrs by single dose SRB assay. The format is functional. To be noted: read-out: GI.
The test system of assay [9] is PC-3. The assay is described as follows: Growth inhibition of human PC3 cells at 10 uM after 48 hrs by single dose SRB assay. Type of assay: functional. To be noted: PC-3, 48 h, read-out: GI.
Assay [10] has as its system HOP-92. The assay is described as follows: Growth inhibition of human HOP92 cells at 10 uM after 48 hrs by single dose SRB assay. Type of assay: functional.
For assay [11], the system named is CCRF-CEM. Kind of assay: Growth inhibition of human CCRF-CEM cells at 10 uM after 48 hrs by single dose SRB assay. Type of assay: functional.
The subject of assay [12] is OVCAR-8. Kind of assay: Growth inhibition of human OVCAR8 cells at 10 uM after 48 hrs by single dose SRB assay. The format is functional. Conditions: OVCAR-8, 48 h, read-out: GI.
Assay [13] deals with A498. Kind of assay: Growth inhibition of human A498 cells at 10 uM after 48 hrs by single dose SRB assay. Type of assay: functional. To be noted: A498, 48 h, read-out: GI.
For assay [14], the system named is MOLT-4. Kind of assay: Growth inhibition of human MOLT4 cells at 10 uM after 48 hrs by single dose SRB assay. Type of assay: functional. Conditions: MOLT-4, 48 h, read-out: GI.
Assay [15] has as its system CAKI-1. Kind of assay: Growth inhibition of human Caki1 cells at 10 uM after 48 hrs by single dose SRB assay. The format is functional.
The subject of assay [16] is SNB-19. The assay is described as follows: Growth inhibition of human SNB19 cells at 10 uM after 48 hrs by single dose SRB assay. The format is functional.
Assay [17] deals with HCT-15. Kind of assay: Growth inhibition of human HCT15 cells at 10 uM after 48 hrs by single dose SRB assay. Type of assay: functional.
Assay [18] deals with T1, Protein farnesyltransferase (Homo sapiens, UniProt P49354+P49356). The assay is described as follows: Inhibition of recombinant human FTase using dansyl-GCVLS as substrate after 15 mins by fluorimetric analysis. The format is protein-complex assay.
Assay [19] has as its system EKVX. The assay is described as follows: Growth inhibition of human EKVX cells at 10 uM after 48 hrs by single dose SRB assay. The format is functional.
Assay [20] deals with SN12C. Kind of assay: Growth inhibition of human SN12C cells at 10 uM after 48 hrs by single dose SRB assay. The format is functional.
The test system of assay [21] is UACC-62. The assay is described as follows: Growth inhibition of human UACC62 cells at 10 uM after 48 hrs by single dose SRB assay. Type of assay: functional.
The subject of assay [22] is MDA-MB-231. Kind of assay: Growth inhibition of human MDA-MB-231 cells at 10 uM after 48 hrs by single dose SRB assay. Type of assay: functional.
Assay [23] concerns MDA-MB-468. The assay is described as follows: Growth inhibition of human MDA-MB-468 cells at 10 uM after 48 hrs by single dose SRB assay. Type of assay: functional. Conditions: MDA-MB-468, 48 h, read-out: GI.
The test system of assay [24] is SK-MEL-5. Kind of assay: Growth inhibition of human SK-MEL-5 cells at 10 uM after 48 hrs by single dose SRB assay. The format is functional.
Assay [25] deals with HT-29. Kind of assay: Growth inhibition of human HT-29 cells at 10 uM after 48 hrs by single dose SRB assay. Type of assay: functional.
For assay [26], the system named is SW-620. Kind of assay: Growth inhibition of human SW620 cells at 10 uM after 48 hrs by single dose SRB assay. Type of assay: functional.
In assay [27] the target is T1, Protein farnesyltransferase. The assay is described as follows: Inhibition of recombinant human FTase using dansyl-GCVLS as substrate at 100 uM after 15 mins by fluorimetric analysis. The format is protein-complex assay.
The test system of assay [28] is OVCAR-3. The assay is described as follows: Growth inhibition of human OVCAR3 cells at 10 uM after 48 hrs by single dose SRB assay. Type of assay: functional.
Assay [29] has as its system RPMI-8226. Kind of assay: Growth inhibition of human RPMI8226 cells at 10 uM after 48 hrs by single dose SRB assay. Type of assay: functional.
The subject of assay [30] is NCI-H226. The assay is described as follows: Growth inhibition of human NCI-H226 cells at 10 uM after 48 hrs by single dose SRB assay. The format is functional.
Assay [31] concerns UO-31. Kind of assay: Growth inhibition of human UO31 cells at 10 uM after 48 hrs by single dose SRB assay. Type of assay: functional. Conditions: UO-31, 48 h, read-out: GI.
In assay [32] the test system is HCT166. The assay is described as §1. The format is functional.

Turning to `Cc1c2c(nn1CC(=O)N1c3ccccc3Sc3ccccc31)-c1ccccc1C2=O`, the inhibition of growth at 10 µM came out at 54.8% in assay [1] (read-out: GI); 33.5% in assay [2] (read-out: GI); 35.8% in [3]; 24.8% in assay [4] (U-251, 48 h, read-out: GI); 9.6% in [5] (NCI-H522, 48 h, read-out: GI); 29.7% in assay [6] (read-out: GI). The inhibition of growth at 10 µM in assay [8] is 55.7%; in assay [9], 31%; in [11] (read-out: GI), 12.1%; in assay [12] it was 28.2%; in [13] it was 19.4%; in [14], 25.4%. Also, the inhibition of growth at 10 µM in assay [15] (CAKI-1, 48 h, read-out: GI) came out at 38.3%; in assay [16] (SNB-19, 48 h, read-out: GI) it was 35.7%; in assay [17] (HCT-15, 48 h, read-out: GI), 23%; in [19] (read-out: GI), 39.9%; in [20] (read-out: GI), 34.8%; in assay [21] (UACC-62, 48 h, read-out: GI), 31.2%. The inhibition of growth at 10 µM in assay [22] (MDA-MB-231, 48 h, read-out: GI) is 27.8%; in assay [23] it was 37.6%; in assay [24] (SK-MEL-5, 48 h, read-out: GI), 51.4%; in assay [25] (HT-29, 48 h, read-out: GI), 17.7%; in assay [26] (SW-620, 48 h, read-out: GI) it was 23.8%; in [28] (OVCAR-3, 48 h, read-out: GI), 29.7%. Further, the inhibition of growth at 10 µM in assay [30] (NCI-H226, 48 h, read-out: GI) was 25.3%; in [31], 29.5%. Besides, the “growth inhibition (GI)” value in assay [7], in assay [10] and in [29] was “inactive” in each case. The IC50 (as a rule, the midpoint of a concentration-inhibition curve) in [18] turned out to be 3.35 µM. In assay [27], the inhibition (usually the drop in the measured response relative to a control, in per cent) came out at 67.7%.

In the case of `C/C(=N\NC(=O)CCN1c2ccccc2Sc2ccccc21)C1=C(O)c2ccccc2C1=O`, the IC50 in assay [18] stood at 3.73 µM. The inhibition in [27] is 95.5%.

As to `N#Cc1cnn(CC(=O)N2c3ccccc3Sc3ccccc32)c1N`, the “growth inhibition (GI)” value in [1], in assay [2], in [4], in [5], in assay [6] and in [32] was “inactive” throughout. In addition, the “growth inhibition (GI)” value in assay [11], in assay [15], in [16], in assay [17], in [19] and in assay [20] was “inactive” in each case. Also, the “growth inhibition (GI)” value in assay [21], in assay [22], in assay [24], in assay [25], in assay [26] and in [28] was “inactive” in each case. In addition, the “growth inhibition (GI)” value in [29] and in assay [30] was “inactive” in each case. The inhibition of growth at 10 µM in assay [3] turned out to be 13.1%; in assay [7] (HL-60, 48 h, read-out: GI), 46.2%; in assay [9], 9.9%; in assay [10] (HOP-92, 48 h, read-out: GI), 12.5%; in [12], 5.5%; in assay [13], 14%. Further, the inhibition of growth at 10 µM was 11.7% in assay [23] and 6.4% in [31]. In addition, the IC50 in assay [18] was found to be 17.2 µM. Also, the inhibition in assay [27] came out at 94.9%.
